These results are taken from patent US20080206198A1, “Compounds and methods for pharmico-gene therapy of epithelial sodium channel associated disorders” (priority 2003, published 2008).

Structures can show the parent of a compound that is named as a salt. Peptide text beside a SMILES is read from it.

In one experiment the test system is primary human fibroblasts.
Test: not given
The note with it: confluent primary human fibroblasts treated prior to rAAV infection; FACS at 96 hours post-infection. Type of experiment: cell-based. Here is the method:
Initial studies were performed in confluent primary human fibroblasts since dose titrations and toxicity could be quickly assessed. Selected agents were used to treat fibroblast monolayers prior to rAAV infection. rAAV transduction was assessed at 96 hours post-infection by FACS analysis, and the percentage of dead cells was simultaneously assessed by incorporation of propidium iodide.
These tripeptides are structurally related to chloroquine but have different lipid solubility and specificity for cysteine proteases (Seglen, 1983). These molecules decrease endosomal degradation of molecules by a mechanism different than altering pH.
In the case of `C[C@H]1CCC/C=C/[C@@H]2C[C@H](O)C[C@H]2[C@H](O)/C=C/C(=O)O1` [BFA, brefeldin A], the rAAV transduction entry is recorded as “significant enhancement of rAAV transduction”. In the case of `Cl.N` [NH4Cl], the rAAV transduction result is “significantly inhibited rAAV transduction”. For the compound `CCN(CC)CCCC(C)Nc1ccnc2cc(Cl)ccc12` (stereo not drawn) [chloroquine], the rAAV transduction entry is reported as “significantly inhibited rAAV transduction”. As to `C=C1[C@@H](C)[C@H]2[C@H](Cc3ccccc3)NC(=O)[C@]23OC(=O)/C=C/[C@H](O)CCC[C@@H](C)C/C=C/[C@H]3[C@@H]1O` [cytochalasin B], the rAAV transduction result is on record as “significant decrease in rAAV transduction”. On to `CC[C@]1(O)C[C@@H]2CN(CCc3c([nH]c4ccccc34)[C@@](C(=O)OC)(c3cc4c(cc3OC)N(C)[C@H]3[C@@](O)(C(=O)OC)[C@H](OC(C)=O)[C@]5(CC)C=CCN6CC[C@]43[C@@H]65)C2)C1` [vinblastine, vinblastine sulfate], for which the rAAV transduction result is listed as “little effect on rAAV transduction”.

Another experiment has as its system polarized human airway epithelial cells.
Test: not given
Type of experiment: cell-based. The note with it: both ubiquitin ligase inhibitors combined, 2 mM pretreatment, 0.2 mM during infection. The method, then:
Primary culture of human bronchial epithelia and reagents utilized. Primary human airway epithelial cells were collected by enzymatic digestion of bronchial samples from lung transplants, as previously described (Kondo et al., 1991; Zabner et al., 1996). Isolated primary airway cells were seeded at a density of 5×10^5 cells/cm^2 onto collagen-coated Millicell-HA culture inserts (Millipore Corp., Bedford, Mass.). Primary cultures were grown at the air-liquid interface for more than 2 weeks, by which time differentiation into a mucociliary epithelium occurs. The culture medium, used to feed only the basolateral side of the cells, contained 49% DMEM, 49% Ham's F12 and 2% Ultraser G (BioSepra, Cedex, France). Dimethyl Sulphoxide (DMSO), camptothecin (Camp), etoposide (Etop), aphidicolin (Aphi), hydroxyurea (HU) and genistein (Geni) were purchased from Sigma (St. Louis, Mo.). Tripeptidyl aldehyde proteasome inhibitors N-Acetyl-L-Leucyl-L-Leucyl-Norleucine (LLnL) and benzyloxycarbonyl-L-leucyl-L-leucyl-L-leucinal (Z-LLL) were purchased from Calbiochem-Novabiochem Corporation (La Jolla, Calif.). Ubiquitin ligase (E3) inhibitors were obtained from Bachem Bioscience Inc. (King of Prussia, Pa.). Anti-AAV capsid monoclonal antibody (Anti-VP1, 2 and 3) was purchased from American Research Products (Belmont, Mass.) and anti-ubiquitin antibody was purchased from Santa Cruz Biotechnology Inc. (Santa Cruz, Calif.).
Transduction of polarized airway epithelial cells and primary human fibroblasts. rAAV infection of fully differentiated bronchial cells was performed as described in Duan et al. (1998). For infections from the apical surface of the airway cells, 5 μl rAAV was mixed with 50 μl of culture media and applied directly onto the apical compartment of Millicell inserts (MOI=10,000 particles/cell). During apical infection, the basolateral side of the Millicell was continuously bathed in culture media. Gene transfer to the basal side was performed by inverting Millicell inserts and applying viral vector to the bottom of the supporting filter membrane in a 50 μl volume for 2 hours. Subsequently, Millicell inserts were returned to the upright position, in the continued presence of the original viral inoculum plus an additional 450 μl of media. For both apical and basolateral infections, rAAV containing media was removed after 24 hours and replaced with either fresh culture media (for the basal side) or exposed to air (for the apical side). To test the effect of different agents on the efficiency of AAV transduction in polarized airway cells, 1 μl of each solution was mixed with AAV prior to infection of airway epithelia. Agents were usually presented during the 24 hours AAV infection period unless indicated otherwise. Most of the agents were dissolved in DMSO except for hydroxyurea (dissolved in phosphate buffered saline), H-Leu-Ala-OH (dissolved in 0.9% glacial acetic acid) and H-His-Ala-OH (dissolved in 50% methanol). The working concentrations of the agents were as follows: 0.1 μM camptothecin, 10 μM etoposide, 5 μg/ml aphidicolin, 40 mM hydroxyurea, 50 μM genistein, 40 μM LLnL and 4 μM Z-LLL. When the ubiquitin ligase (E3) inhibitors (H-Leu-Ala-OH and H-His-Ala-OH) were used, airway cells were pretreated with a combination of both inhibitors at a final concentration of 2 mM for 60 minutes prior to infection, followed by the continued presence of inhibitor (0.2 mM) during the entire 24 hours infection period from the basolateral surface. Studies involving EGTA treatment were performed by transiently treating the apical membrane of polarized airway epithelia with 3 mM EGTA in water for 10 minutes (Duan et al., 1998). Following hypotonic EGTA treatment, cultures were washed twice with culture medium and infected with rAAV in the presence or absence of 40 μM LLnL. Human primary fibroblast cells (P4) were maintained in 10% fetal bovine serum (FBS), 1% penicillin and streptomycin, and 89% DMEM. […]
For `C[C@H](NC(=O)[C@@H](N)Cc1cnc[nH]1)C(=O)O` [H-His-Ala-OH] (H-His-Ala-OH), the “rAAV transduction from the basolateral surface” value was “enhanced rAAV transduction from the basolateral surface”.

As for `CC(C)C[C@H](N)C(=O)N[C@@H](C)C(=O)O` [H-Leu-Ala-OH] (H-Leu-Ala-OH), the “rAAV transduction from the basolateral surface” value is reported as “enhanced rAAV transduction from the basolateral surface”.

Staying with this experiment, now noted: data not shown.
Consider `CC[C@@]1(O)C(=O)OCc2c1cc1n(c2=O)Cc2cc3ccccc3nc2-1` [camptothecin], for which the “rAAV transduction from the apical surface” value is reported as “none of these agents facilitated rAAV transduction from the apical surface”.

On to `COc1cc([C@@H]2c3cc4c(cc3[C@@H](O[C@@H]3O[C@@H]5CO[C@@H](C)O[C@H]5[C@H](O)[C@H]3O)[C@H]3COC(=O)[C@H]23)OCO4)cc(OC)c1O` [etoposide], for which the “rAAV transduction from the apical surface” value is reported as “none of these agents facilitated rAAV transduction from the apical surface”.

As for `O=c1c(-c2ccc(O)cc2)coc2cc(O)cc(O)c12` [genistein], the “rAAV transduction from the apical surface” value was “none of these agents facilitated rAAV transduction from the apical surface”. `NC(=O)NO` [hydroxyurea]: the “rAAV transduction from the apical surface” value is recorded as “none of these agents facilitated rAAV transduction from the apical surface”.

The next experiment relates to HeLa cells. Put plainly: AAV2 FLAG-Luc transduction of HeLa cells (luciferase screen). Type of experiment: cell-based, human.
Conditions: not given
From the text:
A. To screen for agents that enhance rAAV transduction, any number of cells can be used. A range of concentrations of the agent to be tested can be determined based on, for instance desirable profiles of the agent, desirable toxicity profiles of the agent and/or concentration of the agents employed in vivo. The usefulness of the cell type chosen for the screen can be confirmed by testing compounds, e.g., proteasome inhibitors such as LLnL and ZLL which are known to increase rAAV transduction. For example, a AAV2 FLAG-Luc vector was employed to transduce HeLa, ferret fibroblasts, IB3 and Huh (liver) cells in the presence or absence of the proteasome inhibitor MG132. MG132 was confirmed to enhance AAV transduction in all cell types tested: HeLa cell transduction was enhanced about 500-fold at 80 μM, and 200-fold at 40 μM, MG132; ferret fibroblast cell transduction was enhanced about 200-fold at 20 μM, and 17-fold at 4 μM, MG132; IB3-1 cell transduction was enhanced about 30 to 70-fold at 20 to 80 μM MG132; and Huh-7 cell transduction was enhanced about 15-fold at 20 to 80 μM MG132. There was no difference in rAAV transduction efficiency in HeLa cells when either DMSO or ETOH was used as a vehicle for MG132. B. HeLa cells were selected to screen for additional agents that enhance rAAV transduction, although any cell strain or line; or primary cells, may be employed. […] The range of concentrations of the agents to be tested were selected based on solubility profiles, toxicity profiles and/or concentrations previously employed in vivo.
HeLa cells were infected for 2 hours with an MOI of 100 rAAV in the presence of agents, e.g., ritonavir (Norvir) (1, 10 and 100 μM), cyclosporin A (2.5, 25 and 250 μg/ml), epoxomicin (1, 10 and 50 μM), alcacinomycin A (5, 50 or 500 μM), chymostatin (1, 10 and 100 μM), bestatin (1, 10 and 100 μM), doxorubicin (adriamycin) (0.1, 1 and 10 μM), camptothecin (camptosar) (1, 10 and 100 μM), eicosapentanoic acid (1, 10 and 100 μM), tannic acid (2, 20, 200 and 2000 μM), simvastatin, prodrug (2, 20 and 200 μM), cisplatin (0.2, 2 and 20 μg/mL), and chloroquine (4, 40 and 400 μM). Forty-eight hours after infection, cells were harvested for analysis. rAAV transduction was measured by removing the media from the cell cultures, adding 100 μL reporter lysis buffer (RLB) and freezing. The supernatant was thawed and transferred to microfuge tubes, freeze thawed an additional 2 times, clarified by centrifugation for 10 minutes and then analyzed for reporter gene expression on the lumometer. Protein was determined by Bradford analysis and results were expressed as relative light units per mg protein (RLU/mg).
Based on results with doxorubicin, a small number of FDA approved anthracyclines were tested for their relative in vitro and in vivo activities on AAV transduction. HeLa cells were infected with 100 ppc AAV2FLAG-Luc for 2 hours in the presence of different anthracyclines, e.g., doxorubicin, daunarubicin (Cerubidine), epirubicin (Ellence™), and idarubicin (Idamycin®), and cells harvested 48 hours later. The anthracyclines were pharmaceutical grade, and prepared according to the manufacturer's instructions. Prior to use, the agents were diluted in sterile water to an equal mass, e.g., 0.6 μg/mL, 3 μg/mL and 6 μg/mL. For example, 3 μg/mL idamycin increased luciferase expression by over 5000-fold while doxorubin increased luciferase expression by 58-fold. Generally, the potency was as follows: idarubicin>daunarubicin>epirubicin>doxorubicin.
For the compound `CC[C@H](C)C(=O)O[C@H]1C[C@@H](C)C=C2C=C[C@H](C)[C@H](CC[C@@H]3C[C@@H](O)CC(=O)O3)[C@H]21` [lovastatin], the “result in cell line screening” value was “negative results”.

The experiment is the same for the next values; noted with them: 0.6, 3 and 6 μg/mL.
Take `COc1cccc2c1C(=O)c1c(O)c3c(c(O)c1C2=O)C[C@@](O)(C(C)=O)C[C@@H]3O[C@H]1C[C@H](N)[C@H](O)[C@H](C)O1` [daunarubicin]: the “order of potency among anthracyclines” value is given as “idarubicin>daunarubicin>epirubicin>doxorubicin”.

With `COc1cccc2c1C(=O)c1c(O)c3c(c(O)c1C2=O)C[C@@](O)(C(=O)CO)C[C@@H]3O[C@H]1C[C@H](N)[C@@H](O)[C@H](C)O1` [epirubicin], the “order of potency among anthracyclines” value is “idarubicin>daunarubicin>epirubicin>doxorubicin”.

The same experiment, now with this note: at the doses tested; MOI 100, 2 hours infection, harvest 48 hours.
As for `CC[C@@]1(O)C(=O)OCc2c1cc1n(c2=O)Cc2cc3ccccc3nc2-1` [camptothecin], the “increase in transduction efficiency” value is recorded as 15 fold. Same read-out and setting: the same measure for `N.N.[Cl][Pt][Cl]` [cisplatin]: 16 fold. Consider `CC[C@H](C)[C@H](NC(=O)[C@H]([C@@H](C)CC)N(C)C(C)=O)C(=O)N[C@H](C(=O)N[C@@H](CC(C)C)C(=O)[C@@]1(C)CO1)[C@@H](C)O` [epoxomicin], for which the “increase in transduction efficiency” value is on record as at most 120 fold. Take `CCC(C)(C)C(=O)O[C@H]1C[C@@H](C)C=C2C=C[C@H](C)[C@H](CC[C@@H]3C[C@@H](O)CC(=O)O3)[C@H]21` [simvastatin]: the “increase in transduction efficiency” value was 4 fold. As for `O=C(OC[C@H]1O[C@@H](OC(=O)c2cc(O)c(O)c(OC(=O)c3cc(O)c(O)c(O)c3)c2)[C@H](OC(=O)c2cc(O)c(O)c(OC(=O)c3cc(O)c(O)c(O)c3)c2)[C@@H](OC(=O)c2cc(O)c(O)c(OC(=O)c3cc(O)c(O)c(O)c3)c2)[C@@H]1OC(=O)c1cc(O)c(O)c(OC(=O)c2cc(O)c(O)c(O)c2)c1)c1cc(O)c(O)c(OC(=O)c2cc(O)c(O)c(O)c2)c1` [tannic acid], the “increase in transduction efficiency” value was determined as 17 fold.

Still in this experiment, the particulars now being: dose ranges tested.
For the compound `CC[C@@]1(O)C(=O)OCc2c1cc1n(c2=O)Cc2cc3ccccc3nc2-1` [camptothecin], the “dose dependence of transduction” value was “dose-dependent increase in transduction”. Consider `CC[C@H](C)[C@H](NC(=O)[C@H]([C@@H](C)CC)N(C)C(C)=O)C(=O)N[C@H](C(=O)N[C@@H](CC(C)C)C(=O)[C@@]1(C)CO1)[C@@H](C)O` [epoxomicin], for which the “dose dependence of transduction” value is “dose-dependent increase in transduction”.
